Experimental data published in ChEMBL document CHEMBL1201862, “PubChem BioAssay data set” (2004).
Calls of active or inactive are those of the source.

Experiments:
[1] = A Cell Based Secondary Assay To Explore Cytotoxicity of Compounds that Sensitize Mycobacterium Tuberculosis to Beta-Lactam Antibiotics.; assay type: functional
[2] = growth suppression of PTEN-null colon cells, dose response, cell-based, HCT116 PTEN knockout (AID 1047); assay type: functional;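 also: HCT116 colon tumor cells with PTEN knocked out; cells exposed to compound for 60 hours before readout; potency for loss of cell viability measured by luminescence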
[3] = growth suppression of beta-catenin-knockout colon cells, dose response, cell-based, HCT116, human colon tumor (AID 1045); assay type: functional;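 also: HCT116 colon tumor cells with beta catenin knocked out; cells exposed to compound for 60 hours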
[4] = Intein inhibitors as potential Tuberculosis drugs, a cytotoxicity screen. [Related pubchem assays (depositor defined):AID2221, AID2223, AID434968, AID435010, AID449749, AID449750, AID489010]; assay type: functional
[5] = biological target: T1, Replicative DNA helicase DnaB (Mycobacterium tuberculosis, UniProt P9WMR3); assay: DnaB intein splicing inhibitors, dose response, biochemical, cell-free fluorescence (AID 449749); assay type: functional
T1 sequence (P9WMR3 whole entry): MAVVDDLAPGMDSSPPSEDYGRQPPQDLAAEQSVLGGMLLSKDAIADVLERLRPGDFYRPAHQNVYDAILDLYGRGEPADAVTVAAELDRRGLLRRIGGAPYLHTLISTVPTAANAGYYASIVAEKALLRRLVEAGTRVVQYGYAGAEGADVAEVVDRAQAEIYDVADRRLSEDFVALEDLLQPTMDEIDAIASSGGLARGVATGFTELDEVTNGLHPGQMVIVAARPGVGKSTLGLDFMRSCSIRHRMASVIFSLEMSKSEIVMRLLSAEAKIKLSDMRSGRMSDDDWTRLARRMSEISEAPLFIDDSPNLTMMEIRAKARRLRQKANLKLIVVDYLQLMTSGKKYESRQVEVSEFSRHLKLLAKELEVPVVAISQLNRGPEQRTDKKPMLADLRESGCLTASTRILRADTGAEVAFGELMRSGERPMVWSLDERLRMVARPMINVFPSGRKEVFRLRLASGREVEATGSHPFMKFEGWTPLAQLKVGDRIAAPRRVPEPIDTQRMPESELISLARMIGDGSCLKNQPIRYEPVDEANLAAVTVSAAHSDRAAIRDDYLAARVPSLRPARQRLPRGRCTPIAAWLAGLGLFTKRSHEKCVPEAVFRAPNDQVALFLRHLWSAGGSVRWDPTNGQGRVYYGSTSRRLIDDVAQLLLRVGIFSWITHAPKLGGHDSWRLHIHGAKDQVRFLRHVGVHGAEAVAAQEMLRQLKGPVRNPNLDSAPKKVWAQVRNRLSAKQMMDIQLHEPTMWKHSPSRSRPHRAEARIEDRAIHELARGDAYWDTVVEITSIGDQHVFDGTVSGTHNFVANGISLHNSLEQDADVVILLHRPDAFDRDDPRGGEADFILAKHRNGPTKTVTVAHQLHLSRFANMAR

Protein RecA = biological target: T2, Protein RecA (Mycobacterium tuberculosis, UniProt P9WHJ3); assay: Fluorescence Cell-Free Homogeneous Dose Retest to Identify Inhibitors of RecA-Intein Splicing Activity. [Related pubchem assays (depositor defined):AID2097, AID2223, AID489010, AID492950]; assay type: functional
T2 sequence (P9WHJ3 whole entry): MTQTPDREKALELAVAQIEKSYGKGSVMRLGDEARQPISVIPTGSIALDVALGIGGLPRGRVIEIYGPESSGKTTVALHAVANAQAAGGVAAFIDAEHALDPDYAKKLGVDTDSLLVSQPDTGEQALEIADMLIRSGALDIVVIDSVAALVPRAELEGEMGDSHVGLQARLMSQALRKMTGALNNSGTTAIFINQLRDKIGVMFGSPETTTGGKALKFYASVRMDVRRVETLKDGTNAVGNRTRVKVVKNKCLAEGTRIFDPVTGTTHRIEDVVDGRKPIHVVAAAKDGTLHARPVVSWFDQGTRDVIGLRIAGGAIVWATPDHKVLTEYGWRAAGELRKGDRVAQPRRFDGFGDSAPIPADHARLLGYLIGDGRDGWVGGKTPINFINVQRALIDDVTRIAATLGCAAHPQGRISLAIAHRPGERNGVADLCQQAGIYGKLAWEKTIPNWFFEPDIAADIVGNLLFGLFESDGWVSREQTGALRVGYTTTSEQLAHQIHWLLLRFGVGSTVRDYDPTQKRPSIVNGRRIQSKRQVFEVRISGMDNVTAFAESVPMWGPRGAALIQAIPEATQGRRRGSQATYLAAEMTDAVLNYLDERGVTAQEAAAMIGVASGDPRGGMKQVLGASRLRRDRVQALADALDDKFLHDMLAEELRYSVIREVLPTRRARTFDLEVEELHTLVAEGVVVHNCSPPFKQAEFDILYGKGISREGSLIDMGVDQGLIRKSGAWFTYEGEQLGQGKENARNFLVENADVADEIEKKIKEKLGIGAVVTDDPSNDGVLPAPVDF

[6] = biological target: T3, High affinity choline transporter 1 (Homo sapiens, UniProt Q9GZV3); assay: CHT activators, dose response, cell-based, 10-point CRC, membrane potential dye (AID 602376); assay type: functional
T3 sequence (Q9GZV3 whole entry): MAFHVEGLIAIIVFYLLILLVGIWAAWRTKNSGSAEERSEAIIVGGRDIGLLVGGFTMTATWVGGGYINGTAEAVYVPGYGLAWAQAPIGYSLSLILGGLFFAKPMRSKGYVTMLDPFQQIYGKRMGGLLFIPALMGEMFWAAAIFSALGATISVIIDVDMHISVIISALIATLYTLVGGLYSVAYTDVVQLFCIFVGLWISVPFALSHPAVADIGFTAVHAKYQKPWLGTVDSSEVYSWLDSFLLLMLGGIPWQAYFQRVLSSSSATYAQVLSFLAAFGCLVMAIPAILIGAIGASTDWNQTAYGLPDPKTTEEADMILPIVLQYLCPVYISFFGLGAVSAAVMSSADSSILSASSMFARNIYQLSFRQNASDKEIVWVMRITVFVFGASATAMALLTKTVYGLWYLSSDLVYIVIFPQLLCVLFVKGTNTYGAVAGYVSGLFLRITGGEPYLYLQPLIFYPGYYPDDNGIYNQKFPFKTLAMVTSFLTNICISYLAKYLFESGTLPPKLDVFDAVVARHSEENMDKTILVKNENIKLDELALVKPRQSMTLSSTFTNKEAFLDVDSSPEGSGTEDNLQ

Paired box protein Pax-8 = Paired box protein Pax-8 (Homo sapiens, UniProt Q06710); assay: inhibitors of PAX8-driven TPO luciferase reporter, dose response, RMG-I cells, cherry-pick (AID 687027); assay type: functional, cell-based;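 also: luciferase reporter driven by Pax8 target thyroperoxidase promoter measured by SteadyGlo luminescence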
[7] = non-specific cell cytotoxicity, dose response, cytotoxicity control for PAX8 inhibitor project, plate reader, dry powder samples (AID 743021); assay type: functional, cell-based
[8] = biological target: Tyrosine-protein phosphatase non-receptor type 11 (Homo sapiens, UniProt Q06124); assay: SHP2 phosphatase inhibition, dose response, selectivity assay for STEP inhibitor project, biochemical (AID 602367); assay type: functional; conditions: read-out: IC50_Mean
[9] = biological target: Tyrosine-protein phosphatase non-receptor type 5 (Homo sapiens, UniProt P54829); assay: STEP phosphatase inhibitors, confirmation, biochemical, fluorescence intensity, uHTS hits (AID 602372); assay type: functional; conditions: read-out: IC50_Mean
[10] = biological target: Dual specificity protein phosphatase 3 (Homo sapiens, UniProt P51452); assay: VHR phosphatase inhibition, dose response, selectivity assay for STEP inhibitor project, biochemical (AID 602374); assay type: functional; conditions: read-out: IC50_Mean
Caspase-6 = biological target: T4, Caspase-6 (Homo sapiens, UniProt P55212); assay: human caspase-6 inhibitors, dose response, biochemical, VEID-R110 fluorescence, cherry-pick (AID 720632)
T4 sequence (P55212 whole entry): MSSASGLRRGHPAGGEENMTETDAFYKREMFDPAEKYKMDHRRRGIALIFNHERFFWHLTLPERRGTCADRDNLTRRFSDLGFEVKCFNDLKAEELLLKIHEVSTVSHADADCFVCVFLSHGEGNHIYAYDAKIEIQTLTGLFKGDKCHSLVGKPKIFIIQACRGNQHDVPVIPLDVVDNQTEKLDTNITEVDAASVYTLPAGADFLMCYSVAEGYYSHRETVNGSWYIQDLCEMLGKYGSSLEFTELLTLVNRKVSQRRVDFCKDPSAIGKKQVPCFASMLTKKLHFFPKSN

[11] = biological target: Protein disulfide-isomerase (Homo sapiens, UniProt P07237); assay: PDI inhibitors, insulin aggregation turbidity, dose response, biochemical, absorbance, cherry-picked samples (AID 602350); assay type: functional
Beta-galactosidase = Beta-galactosidase (Escherichia coli, UniProt Q8VNN2); assay: PubChem AID 485352; assay type: functional
Large T antigen = Large T antigen (Simian virus 40, UniProt P03070); assay type: functional, Betapolyomavirus macacae;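 also: Confirmatory-stage PubChem screen for compounds that inhibit SV40 T antigen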
[12] = inhibitors of intracellular T. cruzi replication, confirmation, NIH3T3 host cells, beta-gal luminescence (AID 2044); assay type: functional, cell-based;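 also: intracellular parasites grown in NIH/3T3 mouse fibroblasts as host cells; luminescent beta-galactosidase reporter signal from transgenic T. cruzi replicating inside host cells; inhibitors lower the luminescence signal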
[13] = biological target: T5, Type-1 angiotensin II receptor (Homo sapiens, UniProt P30556); assay: AT1 receptor antagonists, dose response, selectivity assay for APJ receptor antagonist project, cell-based, uHTS hits (AID 463214); assay type: functional;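 also: antagonist potency against angiotensin II stimulated AT1 response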
T5 sequence (P30556 whole entry): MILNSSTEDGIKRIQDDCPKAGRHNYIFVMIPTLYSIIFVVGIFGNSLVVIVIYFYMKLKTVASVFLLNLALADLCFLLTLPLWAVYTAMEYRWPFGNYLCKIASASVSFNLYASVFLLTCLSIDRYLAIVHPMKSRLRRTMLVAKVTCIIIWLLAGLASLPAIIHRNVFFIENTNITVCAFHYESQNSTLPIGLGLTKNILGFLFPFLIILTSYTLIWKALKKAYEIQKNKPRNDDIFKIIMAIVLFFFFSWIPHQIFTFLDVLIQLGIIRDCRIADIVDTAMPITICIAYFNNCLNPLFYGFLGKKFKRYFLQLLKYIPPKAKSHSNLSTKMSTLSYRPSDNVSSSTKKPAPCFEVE

[14] = cytotoxicity toward NIH3T3 fibroblasts, dose response, counter-screen, cell-based, ATP luminescence, mouse fibroblasts (AID 2010); assay type: functional;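 also: cells exposed to compound for about 90 hours before reading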
INS1 = assay: beta cell apoptosis inhibitors, cytokine rescue, dose response, luminescence, retest (AID 449756); assay type: functional, cell-based; conditions: Rattus norvegicus;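 also: cell death triggered by IL-1 beta plus TNF-alpha plus IFN-gamma mixture; protective hits raise ATP signal compared with cytokine alone wells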
Melanocortin receptor 4 = Melanocortin receptor 4 (Homo sapiens, UniProt P32245); assay: MC4R antagonist potency on cAMP, dose response, cell-based, TR-FRET, biased antagonists (AID 602298); assay type: functional;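 also: antagonist potency against agonist-stimulated cAMP production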
[15] = Shn3 3'UTR reporter inhibitors, dose response, cell-based, Clone20 osteoblasts, firefly luciferase, cherry-picked (AID 624132); assay type: functional;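 also: firefly luciferase luminescence from reporter carrying the Shn3 3'UTR in osteoblasts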
[16] = HepG2 cell cytotoxicity, dose response, cytotoxicity control for Shn3 inhibitor project, CellTiter-Glo, cherry-picked (AID 624134); assay type: functional, cell-based
[17] = control 3'UTR Renilla luciferase suppression, dose response, counter-screen for Shn3 inhibitor project, cell-based, Clone20-Shn3RL, cherry-picked (AID 624133); assay type: functional
[18] = nonselective inhibitors of cellular cAMP signaling, dose response, counter-screen for MC4R biased antagonist project, cell-based, TR-FRET cAMP detection (AID 602305); assay type: functional;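 also: U2OS cells stimulated with forskolin near its EC80 as the cAMP inducer; potency is for inhibition of forskolin-stimulated cAMP signaling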

Chain of Paired box protein Pax-8 (Q06710 whole entry): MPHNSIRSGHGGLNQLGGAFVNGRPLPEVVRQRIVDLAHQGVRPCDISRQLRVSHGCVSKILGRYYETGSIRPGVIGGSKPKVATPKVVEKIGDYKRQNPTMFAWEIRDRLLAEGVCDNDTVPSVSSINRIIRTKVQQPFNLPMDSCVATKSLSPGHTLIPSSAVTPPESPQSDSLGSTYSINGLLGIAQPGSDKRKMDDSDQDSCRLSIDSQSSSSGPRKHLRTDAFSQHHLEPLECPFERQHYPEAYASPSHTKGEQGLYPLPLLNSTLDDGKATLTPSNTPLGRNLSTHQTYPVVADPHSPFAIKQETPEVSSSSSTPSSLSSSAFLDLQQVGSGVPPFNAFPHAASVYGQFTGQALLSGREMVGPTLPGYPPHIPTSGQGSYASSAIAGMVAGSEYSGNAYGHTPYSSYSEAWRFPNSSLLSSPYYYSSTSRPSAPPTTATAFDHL
Chain of Dual specificity protein phosphatase 3 (P51452 whole entry): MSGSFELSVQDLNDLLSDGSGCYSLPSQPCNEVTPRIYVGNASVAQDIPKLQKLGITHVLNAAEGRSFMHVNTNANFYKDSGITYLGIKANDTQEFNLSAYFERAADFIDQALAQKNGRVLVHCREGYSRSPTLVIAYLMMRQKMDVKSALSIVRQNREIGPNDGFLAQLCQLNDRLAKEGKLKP
Chain of Large T antigen (P03070 whole entry): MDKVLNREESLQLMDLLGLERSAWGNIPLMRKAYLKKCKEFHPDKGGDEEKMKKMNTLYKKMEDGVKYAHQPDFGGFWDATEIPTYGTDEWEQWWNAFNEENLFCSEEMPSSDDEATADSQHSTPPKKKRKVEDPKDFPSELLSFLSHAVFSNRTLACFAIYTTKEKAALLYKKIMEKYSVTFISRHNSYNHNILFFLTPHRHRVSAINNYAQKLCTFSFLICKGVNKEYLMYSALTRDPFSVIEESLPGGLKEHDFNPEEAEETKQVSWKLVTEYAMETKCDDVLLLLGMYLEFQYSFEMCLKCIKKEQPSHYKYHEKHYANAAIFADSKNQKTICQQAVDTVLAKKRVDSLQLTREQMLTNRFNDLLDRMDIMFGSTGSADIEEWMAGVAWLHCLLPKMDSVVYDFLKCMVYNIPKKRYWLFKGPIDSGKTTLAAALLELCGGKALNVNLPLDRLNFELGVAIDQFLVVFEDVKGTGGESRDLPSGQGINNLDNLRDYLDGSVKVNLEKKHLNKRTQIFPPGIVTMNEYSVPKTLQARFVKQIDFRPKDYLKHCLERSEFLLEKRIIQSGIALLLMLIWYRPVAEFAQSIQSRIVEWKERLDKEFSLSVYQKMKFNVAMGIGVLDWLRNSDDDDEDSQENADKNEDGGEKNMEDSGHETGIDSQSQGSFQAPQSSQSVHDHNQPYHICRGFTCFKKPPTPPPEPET
Chain of Protein disulfide-isomerase (P07237 whole entry): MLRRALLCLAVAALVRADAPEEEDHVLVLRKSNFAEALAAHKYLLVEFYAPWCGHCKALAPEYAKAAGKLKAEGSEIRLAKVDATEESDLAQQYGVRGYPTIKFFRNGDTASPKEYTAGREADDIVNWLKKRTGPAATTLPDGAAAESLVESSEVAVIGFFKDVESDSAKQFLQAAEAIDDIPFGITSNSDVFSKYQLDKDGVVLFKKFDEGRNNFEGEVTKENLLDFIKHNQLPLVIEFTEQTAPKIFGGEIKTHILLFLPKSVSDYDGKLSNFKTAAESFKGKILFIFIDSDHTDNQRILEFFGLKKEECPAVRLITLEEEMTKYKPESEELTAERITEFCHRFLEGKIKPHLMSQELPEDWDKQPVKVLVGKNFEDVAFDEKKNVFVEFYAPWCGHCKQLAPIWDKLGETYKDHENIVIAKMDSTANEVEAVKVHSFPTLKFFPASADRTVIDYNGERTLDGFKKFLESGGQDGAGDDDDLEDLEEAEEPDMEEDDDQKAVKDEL
Chain of Tyrosine-protein phosphatase non-receptor type 5 (P54829 whole entry): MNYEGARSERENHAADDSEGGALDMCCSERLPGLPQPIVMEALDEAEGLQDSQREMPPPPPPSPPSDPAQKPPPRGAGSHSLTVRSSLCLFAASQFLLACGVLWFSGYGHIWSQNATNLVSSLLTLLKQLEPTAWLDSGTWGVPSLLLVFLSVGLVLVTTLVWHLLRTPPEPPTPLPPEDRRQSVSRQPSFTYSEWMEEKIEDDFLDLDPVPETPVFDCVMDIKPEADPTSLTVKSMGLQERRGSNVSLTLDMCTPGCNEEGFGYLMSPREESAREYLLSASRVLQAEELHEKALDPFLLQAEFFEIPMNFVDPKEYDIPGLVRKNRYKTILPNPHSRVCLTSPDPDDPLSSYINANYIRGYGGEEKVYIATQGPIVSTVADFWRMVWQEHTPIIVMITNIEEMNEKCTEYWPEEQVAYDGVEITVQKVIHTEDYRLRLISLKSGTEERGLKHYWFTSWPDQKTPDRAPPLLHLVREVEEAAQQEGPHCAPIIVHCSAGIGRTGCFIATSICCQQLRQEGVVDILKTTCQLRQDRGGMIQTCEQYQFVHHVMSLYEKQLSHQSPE
Chain of Beta-galactosidase (Q8VNN2 whole entry): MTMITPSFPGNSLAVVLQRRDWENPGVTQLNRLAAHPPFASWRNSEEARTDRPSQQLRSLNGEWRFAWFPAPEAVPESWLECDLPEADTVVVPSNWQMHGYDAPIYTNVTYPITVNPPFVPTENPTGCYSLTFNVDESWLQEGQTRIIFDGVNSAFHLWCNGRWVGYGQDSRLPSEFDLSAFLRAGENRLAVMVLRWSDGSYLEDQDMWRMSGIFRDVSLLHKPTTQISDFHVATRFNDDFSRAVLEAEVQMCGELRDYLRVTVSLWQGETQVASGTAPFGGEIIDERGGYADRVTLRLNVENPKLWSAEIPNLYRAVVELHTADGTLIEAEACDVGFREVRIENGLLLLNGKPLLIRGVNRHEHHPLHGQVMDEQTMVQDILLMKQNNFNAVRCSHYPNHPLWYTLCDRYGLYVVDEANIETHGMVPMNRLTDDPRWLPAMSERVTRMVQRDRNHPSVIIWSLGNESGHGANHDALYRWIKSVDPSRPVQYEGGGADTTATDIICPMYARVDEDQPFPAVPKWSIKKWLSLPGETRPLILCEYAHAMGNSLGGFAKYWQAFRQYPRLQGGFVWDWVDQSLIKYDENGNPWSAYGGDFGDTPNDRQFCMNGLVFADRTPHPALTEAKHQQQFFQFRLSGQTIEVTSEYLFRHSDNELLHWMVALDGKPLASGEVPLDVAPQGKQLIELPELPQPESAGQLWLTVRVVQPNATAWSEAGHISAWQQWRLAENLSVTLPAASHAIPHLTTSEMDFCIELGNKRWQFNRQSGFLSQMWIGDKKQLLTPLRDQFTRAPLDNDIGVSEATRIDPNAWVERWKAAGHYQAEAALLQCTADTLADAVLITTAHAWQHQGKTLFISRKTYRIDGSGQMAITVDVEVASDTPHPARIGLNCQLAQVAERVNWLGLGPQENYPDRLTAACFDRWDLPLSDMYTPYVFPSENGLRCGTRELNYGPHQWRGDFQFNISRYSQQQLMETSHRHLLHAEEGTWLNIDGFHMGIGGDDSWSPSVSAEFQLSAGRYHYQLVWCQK
Chain of Melanocortin receptor 4 (P32245 whole entry): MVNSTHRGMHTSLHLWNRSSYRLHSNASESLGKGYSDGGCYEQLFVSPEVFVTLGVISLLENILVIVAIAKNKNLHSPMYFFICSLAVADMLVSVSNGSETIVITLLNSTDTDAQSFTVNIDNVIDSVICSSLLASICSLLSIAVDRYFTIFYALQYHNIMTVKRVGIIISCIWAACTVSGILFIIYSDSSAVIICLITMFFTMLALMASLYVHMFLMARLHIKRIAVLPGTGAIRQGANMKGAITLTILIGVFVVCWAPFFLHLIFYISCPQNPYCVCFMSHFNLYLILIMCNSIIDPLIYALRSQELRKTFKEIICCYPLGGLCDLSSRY
Chain of Tyrosine-protein phosphatase non-receptor type 11 (Q06124 whole entry): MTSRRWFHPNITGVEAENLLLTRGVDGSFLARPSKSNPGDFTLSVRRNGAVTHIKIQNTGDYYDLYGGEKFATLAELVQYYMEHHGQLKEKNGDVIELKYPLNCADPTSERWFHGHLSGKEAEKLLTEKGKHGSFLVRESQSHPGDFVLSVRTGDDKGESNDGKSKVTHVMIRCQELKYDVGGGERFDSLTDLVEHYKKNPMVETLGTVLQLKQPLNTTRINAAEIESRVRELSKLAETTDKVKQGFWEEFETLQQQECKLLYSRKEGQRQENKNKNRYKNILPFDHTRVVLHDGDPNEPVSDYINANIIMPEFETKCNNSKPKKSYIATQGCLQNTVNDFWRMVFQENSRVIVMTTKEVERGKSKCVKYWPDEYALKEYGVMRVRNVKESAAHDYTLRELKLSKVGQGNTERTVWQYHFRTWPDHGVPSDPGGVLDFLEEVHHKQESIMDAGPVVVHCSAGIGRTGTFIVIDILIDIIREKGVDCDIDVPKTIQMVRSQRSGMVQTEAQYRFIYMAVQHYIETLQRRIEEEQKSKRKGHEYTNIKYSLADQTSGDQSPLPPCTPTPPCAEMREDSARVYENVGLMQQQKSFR

Cc1nn(-c2ccccc2)c(Cl)c1CN(C(=O)CCl)c1cccc2ccccc12
CC50 [1]: 0.591 µM (active)
EC50 [2]: 3.44 µM (active)
EC50 [3]: 2.25 µM (active)
CC50 [4]: 1.81 µM (active)
AC50 [5]: 2.28 µM (active)
EC50 (Protein RecA): 0.571 µM (active)
EC50 [6]: 16.7 µM (active)
AC50 (Paired box protein Pax-8): 9.95 µM (active)
AC50 [7]: 11.3 µM (active)

COC(=O)c1ccccc1CSc1nsc(/C=C/N(C)C)c1C#N
IC50 [8]: 2.38 µM (active)
IC50 [9]: 14.5 µM (active)
IC50 [10]: 1.29 µM (active)
AC50 (Caspase-6): 34.5 µM (active)

COc1ccc(C2c3ccc(O)cc3Oc3ncn(CCN4CCOCC4)c(=N)c32)cc1OC (stereo unspecified)
AC50 [11]: 15.5 µM (active)

CCS(=O)(=O)c1ncc(Cl)c(C(=O)Nc2ccc(S(=O)(=O)N3CCCC(C)C3)cc2)n1 (stereo unspecified)
EC50 (Beta-galactosidase): > 40 µM (inactive)
IC50 (Large T antigen): 62.8 µM (active)
EC50 [12]: 2.25 µM (active)
IC50 [13]: 2.18 µM (active)
EC50 [14]: 3.48 µM (active)
AC50 (INS1): 4.76 µM (active)
IC50 (Melanocortin receptor 4): > 0.797 µM (active)
AC50 [15]: < 0.26 µM (active)
AC50 [16]: 9.33 µM (active)
AC50 [17]: 3.95 µM (active)
IC50 [18]: > 64.6 µM (inactive)
AC50 (Paired box protein Pax-8): 5.34 µM (active)
